Assays:
MRGPRB4+ fibres = assay: Two-photon in vivo calcium imaging (GCaMP3.0) of central afferent fibres through a spinal cord laminectomy, chemical stimuli; parameters: species or system mouse
Protocol: (§1) Mice expressing reporters and/or Cre recombinase targeted to the MrgprB4 locus were generated by homologous recombination in embryonic stem cells, according to standard procedures. Heterozygous neonates from MrgprD-Cre and MrgprB4-Cre mice were injected intraperitoneally with Cre-dependent AAV8 viruses expressing GCaMP3.0 or mGCaMP3.0 or hM3(Gq-coupled) DREADD, and imaged as adults (≧8 weeks old).
(§2) Electrophysiology experiments on ex vivo skin-nerve preparations from adult heterozygous Mrgprb4-EGFPf reporter mice were performed as described in Woodbury, et al. J. Comp. Neurol. 436, 304-323 (2001). For calcium imaging, after a dorsal laminectomy the spinal column was stabilized and filled with imaging solution (see below for details). Imaging was performed using a two-photon laser-scanning microscope (Ultima, Prairie Inc.) using an Olympus 40×0.8 N.A. water immersion objective, at 128×128 pixel resolution with an acquisition rate of 8-12 frames per second. Mechanical stimuli were delivered using a custom-modified No. 5 sable paint brush or serrated forceps, in a manner electronically time-stamped to image acquisition, as may be seen in FIGS. 18A-18C and further discussed below. Stimuli were delivered to each mouse in a series of trials, separated by a few minutes; each trial consisted of one or more stimuli delivered typically at intervals of several seconds. Chemical stimuli were delivered to the spinal cord using a Pipetman pipette and to the periphery using a syringe pump. Calcium responses were analysed using custom software written in Matlab (see below for more details). For calculating ΔF/F [(Fav−F0)/F0], F0 is the average of the first ten frames of the recording period.
(§3) Mice 2 months or older were sedated by i.p. injection of a mix of ketamine (100 mg/kg), xylazine (15 mg/kg), acepromazine (2.5 mg/kg in 0.9% NaCl). During surgery, body temperature was maintained at 37° C. with a heating blanket.
(§4) A dorsal laminectomy was performed mostly at spinal level L2-L4 (but occasionally at L1-L3) as described in Johannssen, et al. J. Physiol. (Lond.) 588:3397-3402 (2010), but without removing the dura. The spinal column was stabilized using Narishige STS-A spinal clamps. In addition a head-holding adaptor from Kopf (923-B Mouse Gas Anaesthesia Head Holder) was used that has installed an anaesthesia/gas mask for positioning the mouse head. In this apparatus the gas is applied through a standard hose barb positioned above the nose on the mask. The inlet fills a large gas chamber around the snout, a second hose barb below the mask is provided for vacuuming off excess, expelled gasses. The animals were maintained under continuous anaesthesia for the duration of the imaging experiments with 1-2% isofluorane or with hourly injections of the above ketamine mix. A well was built around the exposed spinal cord using Gelseal (Amersham Biosciences Corp) and Kwik Sil Adhesive (WPI). Warm imaging solution (in mM: 130 NaCl, 3 KCl, 2.5 CaCl2, 0.6 6H2O.MgCl2, 10 HEPES without Na, 1.2 NaHCO3, 10 glucose, pH7.45 with NaOH) (37° C.) was repeatedly applied to prevent drying and maintain tissue integrity, and to allow the use of immersion objectives. During imaging the body temperature of the animals was maintained at 37° C. with a heating blanket and an air-therm heater (WPI) placed inside the microscope area.
(§5) Imaging experiments were performed under a two-photon laser-scanning microscope (Ultima, Prairie Instruments Inc.). Live images were acquired at 8-12 frames per second, at depths below the pia ranging from 100 to 250 μm, using an Olympus 40×0.8 N.A. water immersion objective, at 128×128 pixel resolution with a laser tuned to 940 nm wavelength, and emission filters 525/50 nm and 595/50 nm for green and red fluorescence, respectively. Laser power was adjusted to be 20-25 mW at the focal plane (maximally 35 mW), depending on the imaging depth and level of expression of GCaMP3.0. […]

[1] = system: MRGPRB4+ neurons engineered to express TRPV1; assay: Calcium imaging after peripheral injection of capsaicin in MrgprB4-Cre; Rosa26-loxP-STOP-loxP-TrpV1 mice; format: in vivo, mouse; details: adult MrgprB4-Cre, peripheral injection (10 μl of 1 mM)
Protocol: α,β-methyl ATP (10 μl from 1 mM solution) and capsaicin (10 μl from 1 mM solution (10% DMSO in saline)) was injected in the ventral and dorsal hindpaw of MrgprD and MrgprB4 mice, respectively, using a syringe pump (WPI, Inc., sp200i syringe pump). The timing of the injection was controlled by the two-photon image acquisition system and associated software (Prairie View and Trigger Sync, Prairie Technologies) to link it with image acquisition.
In the case of chemical stimulation (delivered either to the spinal cord or to the periphery), typically a single trial was performed for a given mouse, due to the difficulty of maintaining the same focal plane during the period of application of the chemical to the spinal cord or the period required for diffusion of the liquid bolus delivered for peripheral injection, respectively. In these cases, therefore, the MPI ΔF/Fpeak before and during the stimulation period were calculated for multiple mice imaged using ROIs of similar size, and were compared for statistical significance (relative to pre-stimulus baseline) by repeated measures ANOVA, followed by Bonferroni-corrected post-hoc comparison of means (unless stated otherwise). The ΔF/F values in FIGS. 11B and 11E were corrected for photobleaching as described in Berry, et al. Neuron 74:530-542 (2012). […]

MRGPRD+ fibres = assay: Two-photon in vivo calcium imaging (GCaMP3.0) of central afferent fibres through a spinal cord laminectomy, chemical stimuli; parameters: species or system mouse
Protocol: as §1, §2, §3, §4, §5

[2] = direct application to the spinal cord, KCl 60 mM, n=3
[3] = injection into the dorsal (hairy) skin of the hindpaw (10 μl of 1 mM), n=3
[4] = injection into the glabrous skin of the hind paw (10 μl of 1 mM), n=3
[5] = spinal application, 5 mM, mean ± range, n=2

COc1cc(CNC(=O)CCCC/C=C/C(C)C)ccc1O [capsaicin]
calcium transients evoked by peripheral injection (MRGPRB4+ fibres; control MrgprB4-Cre mice without TRPV1, peripheral injection): no such signals were observed
calcium transients evoked by peripheral injection [1]: induced robust calcium transients

[Cl-].[K+] [KCl]
activation of fibres after application to the spinal cord (positive control) (MRGPRB4+ fibres; KCl, same field of view as the CNO test in GCaMP3.0-only mice): robust activation
mean latency to peak (MLP) (MRGPRB4+ fibres; [2]): 9.3 ± 4.15 s
mean percent increase in peak ΔF/F (MPI ΔF/Fpeak) (MRGPRB4+ fibres; [2]): 201.6±33.2%
mean percent increase in peak ΔF/F (MPI ΔF/Fpeak) (MRGPRD+ fibres; direct application to the spinal cord, KCl 60 mM, mean ± s.e.m., n=3): 222±19%
mean latency to peak (MLP) (MRGPRD+ fibres; [2]): 8.6 ± 3.6 s

Nc1ncnc2c1ncn2[C@@H]1O[C@H](COP(=O)(O)CP(=O)(O)OP(=O)(O)O)[C@@H](O)[C@H]1O [α,β Me-ATP, α,β-methylene (Me) ATP]
MLP (MRGPRB4+ fibres; [3]): 21.9 ± 12.6 s
MPI [ΔF/F]peak (MRGPRB4+ fibres; [3]): 142±0.6%
calcium transients evoked by peripheral injection (MRGPRB4+ fibres; mice expressing GCaMP3.0 but not TRPV1 in MrgprB4+ neurons, FIG. 8F): exhibit calcium transients
calcium response after application to the spinal cord (MRGPRD+ fibres; MrgD mice, FIG. 7E): induced a strong calcium response
MLP (MRGPRD+ fibres; [4]): 25.7 ± 10.5 s
MPI [ΔF/F]peak (MRGPRD+ fibres; [4]): 137±51%
MLP (MRGPRD+ fibres; [5]): 16.3±1.3
MPI [ΔF/F]peak (MRGPRD+ fibres; [5]): 249±54%

Reference: patent US20140178305A1, “IDENTIFICATION AND USE OF ANXIOLYTIC COMPOUNDS” (CALIFORNIA INSTITUTE OF TECHNOLOGY, priority 2012, published 2014)
